Test results as given in PubChem BioAssay (NCI).
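Each compound was tested at five concentrations against cells in 96-well plates for 48 hours. GI50: concentration for 50% inhibition of growth. TGI: total growth inhibition.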 Where a SMILES comes first, the peptide text is derived from it. Bridges are numbered along the chain shown (N, C = ends). Roman numbers before positions name the chains, in order. [ ]: non-standard residue; d: D form. The star is where a group is joined. Heptadecanoyl = CCCCCCCCCCCCCCCCC(=O)*; Phg = N[CH](C(=O)O)c1ccccc1

What was measured:
Assay in all cases: NCI tumour cell line growth inhibition, 48 h
K-562 leukemia = test system: K-562 leukemia
SF-295 CNS = test system: SF-295 CNS
SF-268 CNS = test system: SF-268 CNS
SNB-19 CNS = test system: SNB-19 CNS
COLO 205 colon = test system: COLO 205 colon
UACC-62 melanoma = test system: UACC-62 melanoma
KM12 colon = test system: KM12 colon
RPMI-8226 leukemia = test system: RPMI-8226 leukemia
SK-MEL-2 melanoma = test system: SK-MEL-2 melanoma
DU-145 prostate = test system: DU-145 prostate

SMILES | TGI (K-562 leukemia) [µM] | TGI (SF-295 CNS) [µM] | TGI (SF-268 CNS) [µM] | TGI (SNB-19 CNS) [µM] | TGI (COLO 205 colon) [µM] | TGI (UACC-62 melanoma) [µM] | TGI (KM12 colon) [µM] | TGI (RPMI-8226 leukemia) [µM] | TGI (SK-MEL-2 melanoma) [µM] | GI50 (K-562 leukemia) [µM] | GI50 (SF-295 CNS) [µM] | GI50 (SF-268 CNS) [µM] | GI50 (SNB-19 CNS) [µM] | GI50 (COLO 205 colon) [µM] | GI50 (DU-145 prostate) [µM] | TGI (DU-145 prostate) [µM] | GI50 (RPMI-8226 leukemia) [µM] | GI50 (SK-MEL-2 melanoma) [µM] | GI50 (UACC-62 melanoma) [µM] | GI50 (KM12 colon) [µM]
CCOC(=O)c1cc(Cl)ccc1OC(N)=O | > 100 | > 100 | > 100 | > 100 | > 100 | > 100 | > 100 | > 100 | > 100 |  |  |  |  |  |  |  |  |  |  | 
CCCCCCCCCCCCCCCCC(=O)N1CCCC1C(=O)NCC(=O)NC(C(=O)N1CCCC1C(=O)NC(CO)C(=O)NC(Cc1ccc(O)cc1)C(=O)NC(CCCCNC(=O)C1CCCN1C(=O)C(CCCCN)NC(=O)C(CCCCN)NC(=O)C(CCCCN)NC(=O)C(CCCNC(=N)N)NC(=O)C(CCCCN)NC(=O)C(N)C(C)C)C(=O)NC(CC(C)C)C(=O)NC(CCCNC(=N)N)C(=O)N1CCCC1C(=O)NCC(N)=O)c1ccccc1 (configuration not stated) (I: Heptadecanoyl-PG[Phg]PSYKLRPG-NH2 / II: H-VKRKKKP; amide I:7-II:C; configuration not given here) | 86.8 | 80.1 | > 100 | 84.1 | 18.4 |  |  | 35.3 | > 100 | 10.2 | 25 | 15 | 31.2 | 4.75 | 24.6 | 61.5 | 13.5 | 50.3 |  | 
Nc1nc(Cl)nc2c1ncn2C1CCC(CO)O1 (configuration not stated) |  | > 100 |  | > 100 | > 100 | > 100 | > 100 | > 100 | > 100 |  |  |  |  |  |  | > 100 |  |  |  | 
N#CC(C#N)=Cc1ccc(-c2ccc(-c3nc4ccccc4s3)cc2)s1 | 57.4 | 59.1 | > 100 | > 100 | > 100 | 30.7 | 78.5 |  | > 100 | 17.8 | 22.6 | 25.5 | 30 | 23.7 | 17.7 | 44.8 |  | 33.1 | 15.1 | 19.9
C(=N/Nc1ccccn1)/c1cccnc1 | > 100 | > 100 | > 100 | > 100 | > 100 | > 100 | > 100 | > 100 | > 100 |  |  |  |  |  |  | > 100 |  |  |  | 
CN(C)C(=S)SCc1ccccc1 |  | > 100 | > 100 | > 100 | > 100 | > 100 | > 100 |  | > 100 |  |  |  |  |  |  | > 100 |  |  |  | 
C/C(=C\c1ccc2c(c1)OCO2)[N+](=O)[O-] | > 100 | 6.27 | 10.7 | 6.98 | 4.2 | 4.83 |  | > 100 | 5.49 |  |  |  |  |  |  | 8.05 |  |  |  | 
Cc1cccc(C(O)c2ccccn2)c1O (configuration not stated) | > 100 | > 100 | > 100 | > 100 | > 100 | > 100 | > 100 | > 100 |  |  |  |  |  |  |  | > 100 |  |  |  | 
